Test results as given in US20260062422A1 (Halda Therapeutics OpCo, Inc., priority 2022, published 2026).

What was measured:
T47D cells = experiment: Cellular growth inhibition assay for T47D cells, CellTiter-Glo; type: cell-based, human; conditions: Homo sapiens, T47D, 72 h, 72 hours treatment, CellTiter-Glo 2.0 cell viability
Procedure, shortened: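 Cells are plated at 3000/well and allowed 24 h before treatment. Test compound in medium containing 0.5% DMSO is then added, with DMSO-only wells as negative control, and plates are incubated 72 h at 37 °C. ATP luminescence (CellTiter-Glo 2.0) is then fitted to four parameters to derive GI50.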

[1] = test system: T-Rex 293 cell line SC3 cells lacking increased expression of androgen receptor protein; experiment: Cellular growth inhibition, T-Rex 293 SC3 cells without doxycycline, CellTiter-Glo; type: cell-based; conditions: T-Rex 293 SC3 cells not exposed to doxycycline, CellTiter-Glo 2.0
Procedure, shortened: (§1)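 GI50 came from a four-parameter fit of CellTiter-Glo 2.0 luminescence after 72 h compound exposure (0.5% DMSO, 37 °C), dosing 24 h post-seeding. SC3 clone cells (2500/well), transfected with wild-type androgen receptor, grew in charcoal-stripped serum medium lacking phenol red, induced with 10 ng/mL doxycycline or left uninduced.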

VCaP cells = experiment: Cellular growth inhibition assay for VCaP cells, CellTiter-Glo; type: cell-based, human; conditions: Homo sapiens, VCaP, 72 h, 72 hours treatment, CellTiter-Glo 2.0
Procedure, shortened: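 GI50 values come from four-parameter curve fits of luminescence data normalized to a zero baseline. Compound, in medium with 0.5% DMSO, was added one day after plating and left for 72 h before CellTiter-Glo 2.0 addition.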

[2] = test system: T-Rex 293 cell line SC3 cells having increased expression of androgen receptor protein due to exposure to doxycycline; experiment: Cellular growth inhibition, T-Rex 293 SC3 cells with doxycycline (androgen receptor induced), CellTiter-Glo; type: cell-based; conditions: T-Rex 293 SC3 cells with 10 ng/mL doxycycline (increased androgen receptor expression)
Procedure, shortened: as §1

Row | Structure (SMILES) | GI50 (T47D cells) | GI50 (VCaP cells) | GI50 ([1]; 72 h) | GI50 ([2]; 72 h) | GI50 ([1]; 72 hours) | GI50 ([2]; 72 hours)
1 | Cc1sc2c(c1C)C(c1ccc(O[C@@H]3CC[C@]4(CCCN(c5ncc(C(=O)N[C@H]6C(C)(C)[C@H](Oc7ccc(C#N)c(Cl)c7)C6(C)C)cn5)C4)C3)cc1)=N[C@@H](Cc1ncco1)c1nnc(C)n1-2 [Compound I-202] | 500 to 1500 nM | < 500 nM | > 3000 nM | < 500 nM | – | –
2 | Cc1sc2c(c1C)C(c1ccc(OC[C@H]3CC[C@]4(CCCN(c5ncc(C(=O)N[C@H]6C(C)(C)[C@H](Oc7ccc(C#N)c(Cl)c7)C6(C)C)cn5)C4)C3)cc1)=N[C@@H](Cc1ncco1)c1nnc(C)n1-2 [Compound I-204] | < 500 nM | 500 to 1500 nM | > 3000 nM | < 500 nM | – | –
3 | Cc1sc2c(c1C)C(c1ccc(N3CCC(CC4CCN(c5ncc(C(=O)N[C@H]6C(C)(C)[C@H](Oc7ccc(C#N)c(Cl)c7)C6(C)C)cn5)CC4)CC3)cc1)=N[C@H](Cc1ncco1)c1nnc(C)n1-2 [Compound I-211] | < 500 nM | < 500 nM | 500 to 1500 nM | < 500 nM | – | –
4 | Cc1sc2c(c1C)C(c1ccc(CCCOC3CCN(c4ncc(C(=O)N[C@H]5C(C)(C)[C@H](Oc6ccc(C#N)c(Cl)c6)C5(C)C)cn4)CC3)cc1)=N[C@@H](Cc1ccccn1)c1nnc(C)n1-2 [Compound I-212, N-[3-(3-chloro-4-cyano-phenoxy)-2,2,4,4-tetramethyl-cyclobutyl]-2-[4-[3-[4-[(9S)-4,5,13-trimethyl-9-(2-pyridylmethyl)-3-thia-1,8,11,12-tetrazatricyclo[8.3.0.02,6]trideca-2(6),4,7,10,12-pentaen-7-yl]phenyl]propoxy]-1-piperidyl]pyrimidine-5-carboxamide] | < 500 nM | < 500 nM | > 3000 nM | < 500 nM | – | –
5 | Cc1sc2c(c1C)C(c1ccc(CCCOC3CCN(c4ncc(C(=O)N[C@H]5C(C)(C)[C@H](Oc6ccc(C#N)c(Cl)c6)C5(C)C)cn4)CC3)cc1)=N[C@H](Cc1ccccn1)c1nnc(C)n1-2 [Compound I-213] | < 500 nM | < 500 nM | > 3000 nM | < 500 nM | – | –
6 | Cc1sc2c(c1C)C(c1ccc(CCCOC3CCN(c4ncc(C(=O)N[C@H]5C(C)(C)[C@H](Oc6ccc(C#N)c(Cl)c6)C5(C)C)cn4)CC3)cc1)=N[C@@H](Cc1cccnc1)c1nnc(C)n1-2 [Compound I-214] | < 500 nM | < 500 nM | < 500 nM | < 500 nM | – | –
7 | Cc1sc2c(c1C)C(c1ccc(CCCOC3CCN(c4ncc(C(=O)N[C@H]5C(C)(C)[C@H](Oc6ccc(C#N)c(Cl)c6)C5(C)C)cn4)CC3)cc1)=N[C@H](Cc1ccncc1)c1nnc(C)n1-2 [Compound I-216] | > 3000 nM | < 500 nM | > 3000 nM | < 500 nM | – | –
8 | Cc1sc2c(c1C)C(c1ccc(CCCOC3CCN(c4ncc(C(=O)N[C@H]5C(C)(C)[C@H](Oc6ccc(C#N)c(Cl)c6)C5(C)C)cn4)CC3)cc1)=N[C@H](Cc1cccnc1)c1nnc(C)n1-2 [Compound I-217] | < 500 nM | < 500 nM | > 3000 nM | < 500 nM | – | –
9 | Cc1sc2c(c1C)C(c1ccc(OC3CC4(CCN(c5ncc(C(=O)N[C@H]6C(C)(C)[C@H](Oc7ccc(C#N)c(Cl)c7)C6(C)C)cn5)CC4)C3)cc1)=N[C@H](Cc1nnn(C)n1)c1nnc(C)n1-2 [Compound I-219] | > 3000 nM | > 3000 nM | > 3000 nM | < 500 nM | – | –
10 | Cc1noc2c1-c1ccccc1C(c1ccc(OC3CC4(C3)CN(c3ncc(C(=O)N[C@H]5C(C)(C)[C@H](Oc6ccc(C#N)c(Cl)c6)C5(C)C)cn3)CCO4)cc1)=N[C@H]2Cc1ncco1 [Compound I-221, N-[3-(3-chloro-4-cyano-phenoxy)-2,2,4,4-tetramethyl-cyclobutyl]-2-[2-[4-[(4S)-1-methyl-4-(oxazol-2-ylmethyl)-4H-isoxazolo[5,4-d][2]benzazepin-6-yl]phenoxy]-5-oxa-8-azaspiro[3.5]nonan-8-yl]pyrimidine-5-carboxamide] | > 3000 nM | > 3000 nM | > 3000 nM | < 500 nM | – | –
11 | Cc1noc2c1-c1ccccc1C(c1ccc(OC3CC4(CCN(c5ncc(C(=O)N[C@H]6C(C)(C)[C@H](Oc7ccc(C#N)c(Cl)c7)C6(C)C)cn5)CC4)C3)cc1)=N[C@H]2Cc1ncco1 [Compound I-222] | > 3000 nM | < 500 nM | > 3000 nM | < 500 nM | – | –
12 | Cc1noc2c1-c1ccccc1C(c1ccc(O[C@H]3C[C@]4(CN(c5ncc(C(=O)N[C@H]6C(C)(C)[C@H](Oc7ccc(C#N)c(Cl)c7)C6(C)C)cn5)CCO4)C3)cc1)=N[C@H]2Cc1ncco1 [Compound I-223] | > 3000 nM | > 3000 nM | > 3000 nM | < 500 nM | – | –

Now from value to molecule, other results behind:

Row | GI50 (T47D cells) | GI50 (VCaP cells) | Structure (SMILES) | GI50 ([1]; 72 h) | GI50 ([2]; 72 h) | GI50 ([1]; 72 hours) | GI50 ([2]; 72 hours)
13 | < 500 nM | 500 to 1500 nM | Cc1sc2c(c1C)C(c1ccc(OC3CC4(CCN(c5ccc(C(=O)N[C@H]6C(C)(C)[C@H](Oc7ccc(C#N)c(Cl)c7)C6(C)C)cc5)CC4)C3)cc1)=N[C@@H](Cc1ncco1)c1nnc(C)n1-2 [Compound I-196] | > 3000 nM | < 500 nM | – | –
14 | < 500 nM | < 500 nM | Cc1sc2c(c1C)C(c1ccc(OC3CC4(C3)CN(c3ncc(C(=O)N[C@H]5C(C)(C)[C@H](Oc6ccc(C#N)c(Cl)c6)C5(C)C)cn3)C4)cc1)=N[C@H](Cc1ncco1)c1nnc(C)n1-2 [Compound I-199] | < 500 nM | < 500 nM | – | –
15 | 500 to 1500 nM | < 500 nM | Cc1sc2c(c1C)C(c1ccc(O[C@H]3CCC4(CCCN(c5ncc(C(=O)N[C@H]6C(C)(C)[C@H](Oc7ccc(C#N)c(Cl)c7)C6(C)C)cn5)C4)C3)cc1)=N[C@@H](Cc1ncco1)c1nnc(C)n1-2 (some centres unmarked) [Compound I-200] | 500 to 1500 nM | < 500 nM | – | –
16 | < 500 nM | < 500 nM | Cc1sc2c(c1C)C(c1ccc(O[C@@H]3CC[C@@]4(CCCN(c5ncc(C(=O)N[C@H]6C(C)(C)[C@H](Oc7ccc(C#N)c(Cl)c7)C6(C)C)cn5)C4)C3)cc1)=N[C@@H](Cc1ncco1)c1nnc(C)n1-2 [Compound I-201] | > 3000 nM | < 500 nM | – | –
17 | < 500 nM | < 500 nM | Cc1sc2c(c1C)C(c1ccc(OC[C@H]3CC[C@@]4(CCCN(c5ncc(C(=O)N[C@H]6C(C)(C)[C@H](Oc7ccc(C#N)c(Cl)c7)C6(C)C)cn5)C4)C3)cc1)=N[C@@H](Cc1ncco1)c1nnc(C)n1-2 [Compound I-203] | > 3000 nM | < 500 nM | – | –
18 | 500 to 1500 nM | < 500 nM | Cc1sc2c(c1C)C(c1ccc(Oc3ncc(C(=O)N[C@H]4C(C)(C)[C@H](Oc5ccc(C#N)c(Cl)c5)C4(C)C)cn3)cc1)=N[C@@H](Cc1ncco1)c1nnc(C)n1-2 [Compound I-205] | 500 to 1500 nM | < 500 nM | – | –
19 | < 500 nM | < 500 nM | Cc1sc2c(c1C)C(c1ccc(N3CC(OC4CCN(c5ncc(C(=O)N[C@H]6C(C)(C)[C@H](Oc7ccc(C#N)c(Cl)c7)C6(C)C)cn5)CC4)C3)cc1)=N[C@@H](Cc1ncco1)c1nnc(C)n1-2 [Compound I-206, N-[3-(3-chloro-4-cyano-phenoxy)-2,2,4,4-tetramethyl-cyclobutyl]-2-[4-[1-[4-[(9S)-4,5,13-trimethyl-9-(oxazol-2-ylmethyl)-3-thia-1,8,11,12-tetrazatricyclo[8.3.0.02,6]trideca-2(6),4,7,10,12-pentaen-7-yl]phenyl]azetidin-3-yl]oxy-1-piperidyl]pyrimidine-5-carboxamide] | < 500 nM | < 500 nM | – | –
20 | 500 to 1500 nM | 500 to 1500 nM | Cc1sc2c(c1C)C(c1ccc(N3CC4(CCN(c5ncc(C(=O)N[C@H]6C(C)(C)[C@H](Oc7ccc(C#N)c(Cl)c7)C6(C)C)cn5)CC4)C3)cc1)=NC(Cc1ncco1)c1nnc(C)n1-2 (some centres unmarked) [Compound I-207] | – | – | > 3000 nM | < 500 nM
21 | > 3000 nM | > 3000 nM | Cc1sc2c(c1C)C(c1ccc(N3CCC(CC4CCN(c5ncc(C(=O)N[C@H]6C(C)(C)[C@H](Oc7ccc(C#N)c(Cl)c7)C6(C)C)cn5)CC4)CC3)cc1)=N[C@@H](Cc1ncco1)c1nnc(C)n1-2 [Compound I-210] | > 3000 nM | 500 to 1500 nM | – | –
22 | < 500 nM | < 500 nM | Cc1sc2c(c1C)C(c1ccc(CCCOC3CCN(c4ncc(C(=O)N[C@H]5C(C)(C)[C@H](Oc6ccc(C#N)c(Cl)c6)C5(C)C)cn4)CC3)cc1)=N[C@@H](Cc1ccncc1)c1nnc(C)n1-2 [Compound I-215] | < 500 nM | < 500 nM | – | –
23 | < 500 nM | < 500 nM | Cc1sc2c(c1C)C(c1ccc(OC3CC4(CCN(c5ncc(C(=O)N[C@H]6C(C)(C)[C@H](Oc7ccc(C#N)c(Cl)c7)C6(C)C)cn5)CC4)C3)cc1)=N[C@@H](Cc1nnn(C)n1)c1nnc(C)n1-2 [Compound I-218, N-[3-(3-chloro-4-cyano-phenoxy)-2,2,4,4-tetramethyl-cyclobutyl]-2-[2-[4-[(9S)-4,5,13-trimethyl-9-[(2-methyltetrazol-5-yl)methyl]-3-thia-1,8,11,12-tetrazatricyclo[8.3.0.02,6]trideca-2(6),4,7,10,12-pentaen-7-yl]phenoxy]-7-azaspiro[3.5]nonan-7-yl]pyrimidine-5-carboxamide] | > 3000 nM | < 500 nM | – | –
